pIC50, pKd: −log10 of the molar value.
Columns and labels:
[1] = molecular target: PDHK2 (Homo sapiens (Human), UniProt Q15119); experiment: Biochemical activity testing of PDHK2: PDC inactivation assay; settings: human rec PDHK2, porcine heart PDC, 5 μM ATP, read-out: IC50 PDHK2 (enzyme assay)
Text: Biochemical Activity Testing of PDHK2: PDC Inactivation Assay
The biochemical activity assay for PDHK2 is based on the inactivation of PDC through phosphorylation by PDHK2. The assay is run in two steps: the enzymatic PDHK2 reaction in which isolated PDC is phosphorylated by PDHK2 with ATP as co-substrate and the PDC activity assay in which pyruvate and NAD are converted to acetyl-CoA and NADH. The PDC activity correlates to the increase in NADH and thereby is detectable directly via the increasing fluorescence signal (Exc 340 nm, Em 450 nm). Inhibition of PDHK2 results in a lower phosphorylation status and thereby a less decrease in activity of PDC and a stronger increase in NADH fluorescence signal.
The PDC inactivation assay is performed in Greiner 384-well microtiter plates and is used for high throughput screen. 4 μl of PDHK2 (human, rec, Carna Bioscience, 10 ng/μl-137 nM final concentration) and PDC (isolated from porcine heart, Sigma-Aldrich, 20 mU/ml final concentration) are incubated in the absence or presence of the test compound (10 dilution concentrations) for 30 min at room temperature in kinase buffer (15 mM potassium phosphate buffer, pH 7.0, 60 mM KCl, 1.5 mM DTT, 2.5 mM MgCl2, 0.0125% (w/v) BSA, 0.125% Pluronic F-68). The kinase reaction is started by the addition of 4 μl ATP substrate solution (fc 5 μM in kinase buffer). After 30 min incubation at 37° C. 40 μl of PDC reaction solution (100 mM Tris/HCl, pH 7.8, 0.5 mM EDTA, 1 mM MgCl2, 50 mM NaF, 0.25 mM Coenzyme A, 5 mM pyruvate, 1 mM NAD, 5 mM DTT, 1 mM thiamine pyrophosphate) is added. The first fluorescence measurement is performed on a Perkin Elmer Envision (Exc 340 nm, Em 450 nm). The reaction is incubated for 45 min at room temperature. Afterwards a second fluorescence measurement is performed and the PDC activity is calculated by the difference between both measurements. As full value for the PDHK2 assay the inhibitor-free PDHK2 reaction is used. The pharmacological zero value used is DCA (Sigma-Aldrich) in a final concentration of 3 mM. The inhibitory values […] were determined using either the program Symyx Assay Explorer® or Condosseo® from GeneData.

[2] = system: PDH-E1alpha (pSer300) in HEK293T cells; experiment: Cellular immunofluorescence assay, PDH-E1alpha (pSer300) in HEK293T cells; assay type: cell-based, human; settings: Homo sapiens, HEK-293T, 5 hours incubation, anti-PDH-E1alpha (pSer300) immunofluorescence, read-out: IC50 (cell data)
Method: Cellular Assay for Determination of Compound Activities
Compound activities were determined in a cellular immunofluorescence assay. Human HEK293T cells were seeded into black 384-well plates with clear bottom and grown overnight.
Next day, test compounds were added to the wells and the plates incubated for 5 hours. Following this, cells were fixed with formaldehyde, permeabilised and blocked. The primary antibody, Anti-PDH-E1alpha (pSer300), AP1064 (Merck Millipore) was added and incubated overnight in the plate wells. Next, cells were washed and the secondary antibody, Alexa Fluor 488, goat anti-rabbit ab (A-11008, Invitrogen) was added together with Hoechst 33258 (H3569, Invitrogen) and incubated for 1 hour in the plate wells. Finally, cells were washed and the plates were measured on the laser scanning cytometer acumen hci (TTpLabtech).
The raw data were normalized against a pharmacological inhibitor control and dose response curves were generated by plotting the percent effect values using the software package Genedata screener (Genedata).

[3] = molecular target: human PDHK2 (12-407) (Homo sapiens (Human), UniProt Q15119); experiment: Isothermal titration calorimetry (ITC) binding; settings: ITC at 30° C., pH 7.5
Method: Isothermal Titration Calorimetry
ITC measurements were performed with a VP-ITC micro calorimeter (Microcal, LLC/GE Healthcare Bio-Sciences Aft Uppsala, Sweden). In general titrations were performed by titrating the protein (50 μM) to the test compound (5 μM) in 12 μl injections. All binding experiments were carried out at 30° C. In general the test compounds were diluted form DMSO stock solutions into the measurement buffer with a maximum final concentration of 1% DMSO. The measurement buffer was 20 mM HEPES, 135 mM KCl, 1 mM TCEP, 2 mM MgCl2, 15 mM NaH2PO4, pH 7.5. The human PDHK2 (12-407) was produced in E. coli as his-tagged protein and purified by affinity chromatography. The tag was removed by side specific proteolysis. Before titration the protein buffer was changed to the measurement buffer containing the same DMSO concentration as the test compound dilution. ITC data analysis was performed using Origin 7 calorimetry software from the same supplier. For most measurements a binding model of one binding site was assumed. According to the applied mathematical model it is possible to calculate the binding constant (KA), the observed binding enthalpy (ΔH^obs) as well as the stoichiometry (N) of the formed complex.
Preceding analysis the raw data was corrected for the heats of dilution by extrapolating from the saturation value from the end of titration. In order to allow for direct comparison between the respective experimental series and protein preparations the protein concentration was corrected by referencing titrations to a well behaved standard inhibitor. The apparent stoichiometry values defined the fraction of binding competent protein and compensated for relative errors in protein concentration measurements. This corrected protein concentration was used to set up ITC experiment series with test compounds. Any deviations from ideal 1:1 stoichiometry observed here were attributed to errors in compound concentration. This nominal compound concentration was corrected as well to achieve 1:1 stoichiometry in the fit.

| SMILES | pIC50 [1] | pIC50 [2] | pKd [3] |
| --- | --- | --- | --- |
| C[C@@](O)(C(=O)N1CCc2c(cnn2-c2ccc(Cl)cc2)C1)C(F)(F)F [Compound A1, (2R)-1-[1-(4-chlorophenyl)-6,7-dihydro-4H-pyrazolo[4,3-c]pyridin-5-yl]-3,3,3-trifluoro-2-hydroxy-2-methyl-propan-1-one] | > 6.52 | 4.30 to 5.52 | > 6.52 |
| C[C@@](O)(C(=O)N1CCc2c(cnn2-c2ccc(F)cc2F)C1)C(F)(F)F [Compound A5, (R)-1-[1-(2,4-Difluoro-phenyl)-1,4,6,7-tetrahydro-pyrazolo[4,3-c]pyridin-5-yl]-3,3,3-trifluoro-2-hydroxy-2-methyl-propan-1-one] | > 6.52 | 5.52 to 6.52 | > 6.52 |
| CC1CN(C(=O)[C@@](C)(O)C(F)(F)F)Cc2cnn(-c3ccc(F)cc3)c21 (stereo partly drawn) [Compound A12, (2R)-3,3,3-trifluoro-1-[1-(4-fluorophenyl)-7-methyl-6,7-dihydro-4H-pyrazolo[4,3-c]pyridin-5-yl]-2-hydroxy-2-methyl-propan-1-one] | > 6.52 | > 6.52 | > 6.52 |
| C[C@@H]1CN(C(=O)[C@@](C)(O)C(F)(F)F)Cc2cnc(-c3ccc(F)cc3F)n21 [Compound A54, (R)-1-[(R)-3-(2,4-Difluoro-phenyl)-5-methyl-5,6-dihydro-8H-imidazo[1,5-a]pyrazin-7-yl]-3,3,3-trifluoro-2-hydroxy-2-methyl-propan-1-one] | > 6.52 | > 6.52 | > 6.52 |
| C[C@@](O)(C(=O)N1CCn2c(cnc2-c2ccc(F)cc2)C1)C(F)(F)F [Compound A51, (R)-3,3,3-Trifluoro-1-[3-(4-fluoro-phenyl)-5,6-dihydro-8H-imidazo[1,5-a]pyrazin-7-yl]-2-hydroxy-2-methyl-propan-1-one] | 5.52 to 6.52 | 4.30 to 5.52 | > 6.52 |
| C[C@@](O)(C(=O)N1CCc2c(nnn2-c2ccc(F)cc2)C1)C(F)(F)F [Compound A47, (R)-3,3,3-Trifluoro-1-[1-(4-fluoro-phenyl)-1,4,6,7-tetrahydro-[1,2,3]triazolo[4,5-c]pyridin-5-yl]-2-hydroxy-2-methyl-propan-1-one] | 5.52 to 6.52 | 4.30 to 5.52 | > 6.52 |
| C[C@@H]1CN(C(=O)[C@@](C)(O)C(F)(F)F)Cc2cn[nH]c21 [Compound A28, (R)-3,3,3-Trifluoro-2-hydroxy-2-methyl-1-((R)-7-methyl-1,4,6,7-tetrahydro-pyrazolo[4,3-c]pyridin-5-yl)-propan-1-one] | 5.52 to 6.52 | 4.30 to 5.52 | > 6.52 |
| C[C@@](O)(C(=O)N1CCc2c(cnn2-c2ccccc2)C1)C(F)(F)F [Compound A3, (R)-3,3,3-Trifluoro-2-hydroxy-2-methyl-1-(1-phenyl-1,4,6,7-tetrahydro-pyrazolo[4,3-c]pyridin-5-yl)-propan-1-one] | > 6.52 | 5.52 to 6.52 | > 6.52 |
| C[C@@H]1CN(C(=O)[C@@](C)(O)C(F)(F)F)Cc2cnn(-c3ncccc3F)c21 [Compound A32, (R)-3,3,3-Trifluoro-1-[(R)-1-(3-fluoro-pyridin-2-yl)-7-methyl-1,4,6,7-tetrahydro-pyrazolo[4,3-c]pyridin-5-yl]-2-hydroxy-2-methyl-propan-1-one] | > 6.52 | > 6.52 | > 6.52 |
| C[C@@H]1CN(C(=O)[C@@](C)(O)C(F)(F)F)Cc2cnn(-c3ccc(Cl)cc3)c21 [Compound A10, (R)-1-[(R)-1-(4-Chloro-phenyl)-7-methyl-1,4,6,7-tetrahydro-pyrazolo[4,3-c]pyridin-5-yl]-3,3,3-trifluoro-2-hydroxy-2-methyl-propan-1-one] | > 6.52 | > 6.52 | > 6.52 |
| CC1CN(C(=O)[C@@](C)(O)C(F)(F)F)Cc2cnn(-c3ccc(Cl)cc3)c21 (stereo partly drawn) [Compound A9, (2R)-1-[1-(4-chlorophenyl)-7-methyl-6,7-dihydro-4H-pyrazolo[4,3-c]pyridin-5-yl]-3,3,3-trifluoro-2-hydroxy-2-methyl-propan-1-one] | > 6.52 | > 6.52 | > 6.52 |
| CC(C)(C)n1ncc2c1CCN(C(=O)[C@@](C)(O)C(F)(F)F)C2 [Compound A7, (R)-1-(1-tert-Butyl-1,4,6,7-tetrahydro-pyrazolo[4,3-c]pyridin-5-yl)-3,3,3-trifluoro-2-hydroxy-2-methyl-propan-1-one] | > 6.52 | 5.52 to 6.52 | > 6.52 |
| C[C@@](O)(C(=O)N1CCn2c(-c3ccccc3)cnc2C1)C(F)(F)F [Compound A49, (R)-3,3,3-Trifluoro-2-hydroxy-2-methyl-1-(3-phenyl-5,6-dihydro-8H-imidazo[1,2-a]pyrazin-7-yl)-propan-1-one] | 5.52 to 6.52 | 4.30 to 5.52 | > 6.52 |
| C[C@@H]1CN(C(=O)[C@@](C)(O)C(F)(F)F)Cc2cnn(-c3ccc(F)cn3)c21 [Compound A40, (R)-3,3,3-Trifluoro-1-[(R)-1-(5-fluoro-pyridin-2-yl)-7-methyl-1,4,6,7-tetrahydro-pyrazolo[4,3-c]pyridin-5-yl]-2-hydroxy-2-methyl-propan-1-one] | > 6.52 | > 6.52 | > 6.52 |
| C[C@@H]1CN(C(=O)[C@@](C)(O)C(F)(F)F)Cc2cnn(-c3ccccc3)c21 [Compound A18, (R)-3,3,3-Trifluoro-2-hydroxy-2-methyl-1-((R)-7-methyl-1-phenyl-1,4,6,7-tetrahydro-pyrazolo[4,3-c]pyridin-5-yl)-propan-1-one] | > 6.52 | > 6.52 | > 6.52 |
| C[C@@H]1CN(C(=O)[C@@](C)(O)C(F)(F)F)Cc2cnn(C3CCC(O)CC3)c21 (stereo partly drawn) [Compound A38, (R)-3,3,3-Trifluoro-2-hydroxy-1-[(R)-1-(4-hydroxy-cyclohexyl)-7-methyl-1,4,6,7-tetrahydro-pyrazolo[4,3-c]pyridin-5-yl]-2-methyl-propan-1-one] | > 6.52 | > 6.52 | > 6.52 |
| C[C@@H]1CN(C(=O)[C@@](C)(O)C(F)(F)F)Cc2cnc(-c3ncc(F)cc3F)n21 [Compound A57, (R)-1-[(R)-3-(3,5-Difluoro-pyridin-2-yl)-5-methyl-5,6-dihydro-8H-imidazo[1,5-a]pyrazin-7-yl]-3,3,3-trifluoro-2-hydroxy-2-methyl-propan-1-one] | 5.52 to 6.52 | > 6.52 | > 6.52 |

From US10526325B2, “Bicyclic heterocyclic derivatives” (Merck Patent GmbH, priority 2015, dated 2020)
